Assay results reported in patent publication US20250134847A1, “COMBINATION THERAPIES” (QBIOTICS PTY LTD, priority 2022, published 2025).
Like-named read-outs stand apart in the source and are kept apart here.

What was measured:
[1] = system: B16-F10-OVA tumours; test: B16-F10-OVA mouse melanoma tumours in C57BL/6 mice, intratumoural Compound 1 and intraperitoneal doxorubicin
Experimental: (§3) B16-F10-OVA (B16-F10 mouse melanoma cell line overexpressing chicken ovalbumin) were cultured in RPMI-1640 supplemented with 10% FCS (complete medium) and 3 mM HEPES. LLC (Lewis Lung Carcinoma) cells were cultured in DMEM (Gibco) supplemented with 10% FCS. Both cell lines were incubated at 37° C., 5% CO2 in a humidified incubator.
(§4) C57BL/6 mice were purchased from the Animal Resources Centre (ARC), Murdoch, Western Australia. […] All mice were housed in a specific pathogen free (SPF) facility, with 12 hours light/dark cycle and continual access to food and water.
C57BL/6 mice (6-7 weeks old) were injected subcutaneously (s.c.) on both flanks with B16-F10-OVA mouse melanoma cells (2×10^5 cells per site in 50 μl) or LLC mouse lung cancer cells (5×10^5 cells per site in 50 μl). Tumours were allowed to develop to approximately 75-100 mm^3. Mice were then treated intra-peritoneally with doxorubicin in saline (3 mg/kg; 60 μg/dose, saline for vehicle). […] Treatment with the chemotherapy agent was repeated after 7 and 14 days. For the B16-F10-OVA model, 5 mice per group (10 tumours) were used in duplicate experiments (total of 10 mice per group, 20 tumours in total from both experiments). For the LLC tumour model, 5 mice per group were used in a single experiment (10 tumours).
Volumes were recorded using digital calipers and expressed as mm^3 according to the formula A×b×b×0.5 where A=length and b=measured breadth of the tumour. Mice were also assessed for clinical signs of distress according to an approved clinical score sheet during the experiment. The experiment ceased when an unacceptable clinical score (>6) was reached, or the cumulative tumour burden of the mouse exceeded 1,000 mm^3. […] Mice were humanely euthanized by CO2 asphyxiation at the end of the experiment.

[2] = system: LLC tumours; test: Lewis Lung Carcinoma (LLC) tumours in C57BL/6 mice, intratumoural Compound 1 and intraperitoneal doxorubicin; format: in vivo, mouse
Experimental: as §3, §4
C57BL/6 mice (6-7 weeks old) were injected subcutaneously (s.c.) on both flanks with B16-F10-OVA mouse melanoma cells (2×10^5 cells per site in 50 μl) or LLC mouse lung cancer cells (5×10^5 cells per site in 50 μl). Tumours were allowed to develop to approximately 75-100 mm^3. Mice were then treated intra-peritoneally with doxorubicin in saline (3 mg/kg; 60 μg/dose, saline for vehicle). […] Treatment with the chemotherapy agent was repeated after 7 and 14 days. […]
Volumes were recorded using digital calipers and expressed as mm^3 according to the formula A×b×b×0.5 where A=length and b=measured breadth of the tumour. Mice were also assessed for clinical signs of distress according to an approved clinical score sheet during the experiment. […]

[3] = system: A431 cells; settings: for Combination Index at IC50, Irradiation: with irradiation
[4] = system: MC38 tumours; test: MC38 tumours in C57BL/6 syngeneic mouse model, intratumoural Compound 1 and external beam irradiation; format: in vivo; settings: for Median Survival: Syngeneic Model
Experimental: The MC38 cell line is a murine colonic adenocarcinoma cell line derived from the C57BL/6 mouse (Kerafast, ENH204).
(§1) Subjects were ear tagged for identification.
Adequate positioning was ensured with the irradiator (Gammacel 40 Extractor) by sedating each mouse with a combination solution of Ketamine (80 mg/kg of 8 mg/mL solution, Ceva, NSW, AU) and Midazolam (4 mg/kg of 0.4 mg/mL solution, Sandoz, Hozkirchen, Germany) via intraperitoneal injection. Mice were double contained during transfer to and from the irradiator. During irradiation, mice were restrained with lead shielding to prevent exposure to sites other than the flanks where the tumours were located. […] On completion of treatment, mice were warmed with a heating blanket, placed on their side, and observed until ambulant.
(§2) Tumour volume was recorded as above.

[5] = system: SCC-15 tumours; settings: Xenogeneic Model
Experimental: (§5) Prior to inoculation of subject mice, the cancer cells were seeded to T175 tissue culture flasks (Thermo Scientific) to increase cell numbers. Once 70-80% confluent, cells were trypsinized and resuspended in RPMI-1640 media for harvesting and cell count using a haemocytometer. The cell volume was centrifuged and the pellet reconstituted in RPMI-1640 media to a volume sufficient for the number of inoculations required at 100 μL per injection with two sites per mouse subject. The cell suspension was kept on ice and transferred to the animal facility for injection into the subjects.
The BALB/c Foxn1^nu mice were obtained from the Animal Resource Centre, Western Australia. The C3H/HeNCr mice were bred at the QIMR Animal Facility.
C3H/HeNCr mice were shaved (Wahl, Illinois, USA) one day before inoculation. Whilst restrained subjects were inoculated on the hind quarter bilaterally by injecting 100 μL of the appropriate cell suspension into the subcutaneous space with a Terumo® (Tokyo, Japan) 27G×½″ needle. Subjects were ear tagged for identification. Following inoculation, mice were monitored twice weekly for tumour development and well-being and once tumours developed, the subjects were monitored daily.
(§6) A cohort of thirty BALB/c Foxn1^nu and twenty-one C3H/HeNCr mice, each with two tumours per mouse were divided into six experimental groups as set out in Table 2.
(§7) Weight was recorded for each subject prior to and post-treatment, and at the time of culling. The width and length of each tumour was measured using 150 mm digital Vernier callipers (Kinchrome, Qld, AU) and individual tumour volume (mm^3) calculated using the formula:
IP injections were performed by first sterilizing the anterior abdominal wall of the subject with an alcohol swab before the dorsal skin of the subject was scruffed and the subject inverted with head down. A 29 G needle with the bevel upwards is used to inject into the lower right abdominal quadrant. […]
Tumour volume was recorded as above. […]
Data was analysed with Microsoft Excel and Prism 7 to calculate average tumour volumes and standard deviations (SD). […]

[6] = system: SCC-15 cells; settings: for Combination Index at IC50, Irradiation: with irradiation; for relationship by Chou-Talalay combination index method: Compound 1 with irradiation
Experimental: Cells were seeded at 3000 cells/well in 100 μL of medium in flat bottom 96 well cell culture plates (Corning Incorporated, New York, USA). Cells were incubated for 24 hr to ensure plate adherence prior to treatment.
One in two dilutions were then performed down the plate leaving the last row as an untreated control.
Each cell line was treated with each agent in triplicate with data being averaged across the three trials.
For single agent experiments, wells included no treatment and ethanol treatment controls. Following treatment, cells were incubated for 4 hours prior to washing with PBS and replacement of medium.
Following incubation of treated cells for 5-7 days, cell survival was determined using a sulforhodamine B (SRB) proliferation assay. This assay quantitatively assesses the degree of protein staining as a surrogate marker for cellular growth. Cells were washed with PBS and subsequently fixed with methylated spirits (Chem Supply, South Australia) for at least five minutes. Following fixation, the methylated spirits was removed and cells again washed gently with water prior to staining with 50 μL/well of 0.4% SRB solution (Sigma Aldrich) in 1% acetic acid for sixty minutes. This solution was tipped off and cells quickly washed twice with 1% acetic acid. The assay was completed with administration of 100 μL/well of 10 mM Tris base (unbuffered, pH >9, Invitrogen). Absorbance was measured on an enzyme-linked immunosorbent assay (ELISA) reader (VERSA max microplate reader, Molecular Devices, California, USA) at 564 nm and a five second agitation. Cell survival was graphed as a percentage of control well absorbance against dose.
Analysis was performed using the software program Combusyn.
As for the single agent experimentation, the cell lines were maintained in culture before their eventual transfer to 96-well plates. […] Cell survival was determined relative to no-treatment controls after 7 days of incubation using SRB assays.

[7] = system: UV-13-1 tumours; settings: for Median Survival: Syngeneic Model
Experimental: as §5
C3H/HeNCr mice were shaved (Wahl, Illinois, USA) one day before inoculation. Whilst restrained subjects were inoculated on the hind quarter bilaterally by injecting 100 μL of the appropriate cell suspension into the subcutaneous space with a Terumo® (Tokyo, Japan) 27G×½″ needle. […] Following inoculation, mice were monitored twice weekly for tumour development and well-being and once tumours developed, the subjects were monitored daily.
as §6, §7
IP injections were performed by first sterilizing the anterior abdominal wall of the subject with an alcohol swab before the dorsal skin of the subject was scruffed and the subject inverted with head down. A 29 G needle with the bevel upwards is used to inject into the lower right abdominal quadrant.
On reaching a volume of 70-100 mm^3, tumours of the test subjects were injected IT with 50 μL of either 5 μg or 10 μg of Compound 1 or for control subjects 50 μL of 40% propylene glycol (PG).
The subjects were euthanized by CO2 inhalation when total tumour burden reached 1000 mm^3 per mouse, if ill, and on completion of the experiment.
Data was analysed with Microsoft Excel and Prism 7 to calculate average tumour volumes and standard deviations (SD). Individual and averaged tumour volumes and Kaplan-Meier survival curves were graphed relative to time of treatment.
C3H/HeNCr mouse model inoculated with UV-13-1 tumours is a syngeneic model where the mouse is immunocompetent and the influence of the immune system on treatment may be assessed. These mice were not culled at 60 days but were periodically (weekly) monitored up to 200 days for recurrence.

[8] = system: SCC-15 tumours; test: SCC-15 tumours in BALB/c Foxn1^nu xenogeneic mouse model, intratumoural Compound 1 and external beam irradiation; format: in vivo; settings: for Median Survival: Xenogeneic Model
Experimental: as §1
Adequate positioning was ensured with the irradiator (Gammacel 40 Extractor) by sedating each mouse with a combination solution of Ketamine (80 mg/kg of 8 mg/mL solution, Ceva, NSW, AU) and Midazolam (4 mg/kg of 0.4 mg/mL solution, Sandoz, Hozkirchen, Germany) via intraperitoneal injection. Mice were double contained during transfer to and from the irradiator. During irradiation, mice were restrained with lead shielding to prevent exposure to sites other than the flanks where the tumours were located.
as §2

[9] = intraperitoneal doxorubicin 3 mg/kg + intralesional 40% PG/30 mM acetate
[10] = 5 μg or 10 μg Compound 1, p<0.0001
[11] = 5 Gy irradiation + IT 7.5 μg Compound 1
[12] = 10 Gy irradiation + IT 7.5 μg Compound 1
[13] = syngeneic model, 5 Gy irradiation + 7.5 μg IT Compound 1
[14] = syngeneic model, 10 Gy irradiation + 7.5 μg IT Compound 1
[15] = IP N/Saline + IT 5 μg Compound 1
[16] = IP N/Saline + IT 10 μg Compound 1
[17] = IP cisplatin 2.5 mg/kg + IT 40% PG

COc1cccc2c1C(=O)c1c(O)c3c(c(O)c1C2=O)C[C@@](O)(C(=O)CO)C[C@@H]3O[C@H]1C[C@H](N)[C@H](O)[C@H](C)O1 [doxorubicin, reference compound]
effect on tumour growth [1, 9]: no effect on tumour growth
effect on tumour growth and survival [2, 9]: minor effect on slowing tumour growth and prolonging survival

C/C=C(\C)C(=O)O[C@@H]1[C@@H](C)[C@@]2(O)[C@H]([C@@H]3C(C)(C)[C@]13OC(=O)[C@@H](C)CC)[C@@H]1O[C@]1(CO)[C@@H](O)[C@]1(O)C(=O)C(C)=C[C@H]12 [Compound 1, 12-tigloyl-13-(2-methylbutanoyl)-6,7-epoxy-4,5,9,12,13,20-hexahydroxy-1-tiglien-3-one]
Combination Index at IC50, Irradiation ([3]; Compound 1 concentration 10 μM): 0.33
Combination Index at IC50, Irradiation ([3]; Compound 1 concentration 50 μM): 0.41
Combination Index at IC50, Irradiation ([3]; Compound 1 concentration 100 μM): 0.12
Combination Index at IC50, Irradiation ([3]; Compound 1 concentration 200 μM): 0.08
cell death compared to Compound 1 alone ([3]; Compound 1 with any concentration of irradiation): significant increase in cell death
relationship by Chou-Talalay combination index method ([3]; Compound 1 with irradiation): synergistic
tumour growth and overall survival compared to vehicle alone [1, 10]: slowed tumour growth and prolonged overall survival
tumours completely ablated ([1]; saline/10 μg Compound 1 group): 4/20
Median Survival ([4]; 0 Gy + IT 7.5 μg Compound 1): 13 days
Median Survival [4, 11]: 31 days
Median Survival [4, 12]: 47 days
cure rate ([4]; syngeneic model, 7.5 μg IT Compound 1 alone): 70%
survival at experiment end [4, 13]: 20%
tumours that remained cured at 200 days following treatment [4, 13]: two
survival at experiment end [4, 14]: 20%
tumours that remained cured at 200 days following treatment [4, 14]: two
cure rate (proportion of tumours responding completely) ([4]; syngeneic model, Compound 1 and 5 Gy irradiation): 100%
cure rate (proportion of tumours responding completely) ([4]; syngeneic model, Compound 1 and 10 Gy irradiation): 100%
duration of treatment response ([4]; syngeneic model, Compound 1 monotherapy): 6.2 days
duration of treatment response ([4]; syngeneic model, Compound 1 with 5 Gy irradiation): 64.6 days
duration of treatment response ([4]; syngeneic model, Compound 1 with 10 Gy irradiation): 65.9 days
improvement of duration of treatment response over monotherapy ([4]; syngeneic model, Compound 1 with irradiation, either 5 Gy or 10 Gy): ≥ 8.7 ×
tumour response (individual and average tumour volumes) ([4]; syngeneic model, combinations of Compound 1 and irradiation): considerably improved tumour response
Median Survival [5, 15]: 11 days
Median Survival [5, 16]: 13 days
Combination Index at IC50, Irradiation ([6]; Compound 1 concentration 2 μM): 0.15
Combination Index at IC50, Irradiation ([6]; Compound 1 concentration 20 μM): 2.1
Combination Index at IC50, Irradiation ([6]; Compound 1 concentration 40 μM): 1.75
Combination Index at IC50, Irradiation ([6]; Compound 1 concentration 60 μM): 1.34
relationship by Chou-Talalay combination index method ([6]; at low concentrations): synergistic
relationship by Chou-Talalay combination index method ([6]; some combination indices (CI >1)): consistent with antagonism
cell survival ([6]; exposure to Compound 1 and irradiation): pronounced fall in cell survival
Median Survival [7, 15]: 16.5 days
Median Survival [7, 16]: 23.5 days
efficacy versus IP cisplatin alone ([7]; syngeneic model, 5 μg and 10 μg Compound 1 IT with saline): more efficacious than IP cisplatin alone
Median Survival ([8]; 0 Gy + IT 7.5 μg Compound 1): 22 days
Median Survival [8, 11]: 32 days
Median Survival [8, 12]: 166 days
cure rate ([8]; xenogeneic model, 7.5 μg IT Compound 1 alone): 70%
survival rate at 200 days ([8]; xenogeneic model, 5 Gy irradiation + 7.5 μg IT Compound 1): 20%
survival rate at 200 days ([8]; xenogeneic model, 10 Gy irradiation + 7.5 μg IT Compound 1): 50%
cure rate (proportion of tumours responding completely) ([8]; xenogeneic model, Compound 1 and 5 Gy irradiation): 80%
cure rate (proportion of tumours responding completely) ([8]; xenogeneic model, Compound 1 and 10 Gy irradiation): 70%
tumour size response compared to other combinations ([8]; xenogeneic model, Compound 1 combined with irradiation): significant and durable reduction in tumour size
duration of treatment response ([8]; xenogeneic model, Compound 1 monotherapy): 11 days
duration of treatment response ([8]; xenogeneic model, Compound 1 with 5 Gy irradiation): 51.5 days
duration of treatment response ([8]; xenogeneic model, Compound 1 with 10 Gy irradiation): 111 days
improvement of duration of treatment response over monotherapy ([8]; xenogeneic model, Compound 1 with irradiation, either 5 Gy or 10 Gy): at least 4.6 ×
tumour growth and overall survival compared to vehicle alone [2, 10]: slowed tumour growth and prolonged overall survival

N.N.[Cl][Pt][Cl] [cisplatin, reference compound]
Median Survival [5, 17]: 11 days
Median Survival [7, 17]: 12 days
